Data on 16 molecules can be found in patent publication US10316017B2, “COT modulators and methods of use thereof” (Gilead Sciences, Inc., priority 2015, dated 2019).

Test [1] has as its system TNFα production in LPS-stimulated human monocytes. As to the kind of experiment: Cot Monocyte TNFα Cell Based Assay. The conditions noted are these: Homo sapiens, Monocyte, TNFα in LPS-stimulated human monocytes; read-out: EC50 TNF. The method in brief: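 Cells at 5,000/well were pretreated with compound for 1 h at 37 °C (0.5% DMSO final), then stimulated with 50 pg/ml LPS for 4 h at 37 °C. Supernatant TNFα was measured by two-antibody TR-FRET after overnight room-temperature incubation; values are percent of control between unstimulated and stimulated wells.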

Test [2] addresses T1, human Cot catalytic domain (30-397 amino acids) (Homo sapiens, UniProt P41279).
T1 construct: Purified recombinant human Cot catalytic domain (30-397 amino acids) was purchased from Cama Biosciences; purchased Cama Biosciences (so in the source)
As to the kind of experiment: High Throughput Cot Biochemical Assay (KinEASE TR-FRET). The note with it: Cot biochemical HTRF (KinEASE TR-FRET) assay; read-out: IC50 HTRF. An outline of the steps:
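Reaction of 5 nM recombinant human Cot catalytic domain (aa 30-397) with 1 μM STK3 peptide (XL665-labeled) and 400 μM ATP in 10 mM MOPS pH 7.0, 10 mM MgOAc, 1 mM DTT, 0.5 mg/mL BSA, 0.1% DMSO. Phosphopeptide detected by TR-FRET with europium anti-phospho antibody.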
A general note: TR-FRET usually uses a lanthanide donor and a delayed reading to cut background.

T1 sequence (P41279 30-397): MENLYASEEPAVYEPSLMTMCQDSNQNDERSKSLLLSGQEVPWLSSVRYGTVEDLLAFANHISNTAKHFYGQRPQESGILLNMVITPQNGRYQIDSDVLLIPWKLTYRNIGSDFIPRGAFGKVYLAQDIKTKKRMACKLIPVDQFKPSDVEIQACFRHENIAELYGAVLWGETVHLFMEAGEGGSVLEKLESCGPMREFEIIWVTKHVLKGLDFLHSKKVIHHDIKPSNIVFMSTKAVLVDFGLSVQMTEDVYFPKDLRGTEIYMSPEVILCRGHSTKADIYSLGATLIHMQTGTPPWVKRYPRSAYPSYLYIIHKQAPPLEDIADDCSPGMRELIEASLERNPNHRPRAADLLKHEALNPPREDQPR

One may read the EC50 as the concentration giving half of the maximal effect. In general, IC50 refers to the concentration that inhibits the measured activity by half. For `CC(C)n1cc([C@@H](Nc2cc(Cl)c3ncc(C#N)c(Nc4ccc(F)c(Cl)c4)c3c2)c2cccc(CO)c2)nn1` [Example 713, (S)-8-chloro-4-((3-chloro-4-fluorophenyl)amino)-6-(((3-(hydroxymethyl)phenyl)(1-isopropyl-1H-1,2,3-triazol-4-yl)methyl)amino)quinoline-3-carbonitrile], the EC50 in test [1] was found to be 0.358 µM. Also, the IC50 in test [2] turned out to be 0.017 µM.

Consider `CC(C)(C)N1CCC(n2cc([C@@H](Nc3cc(Cl)c4ncc(C#N)c(NC5CCCC5)c4c3)c3ccc(Cl)cc3)nn2)CC1` [Example 714, (S)-6-(((1-(1-(tert-butyl)piperidin-4-yl)-1H-1,2,3-triazol-4-yl)(4-chlorophenyl)methyl)amino)-8-chloro-4-(cyclopentylamino)quinoline-3-carbonitrile], for which, in test [1], the concentration for a half-maximal effect (EC50) was determined as 1.7 µM. Besides, the half-inhibitory concentration (IC50) in test [2] worked out at 0.131 µM.

`CC(C)(C)N1CCC(n2cc([C@@H](Nc3cc(Cl)c4ncc(C#N)c(NC5CCCCC5)c4c3)c3ccc(Cl)cc3)nn2)CC1` [Example 715, (S)-6-(((1-(1-(tert-butyl)piperidin-4-yl)-1H-1,2,3-triazol-4-yl)(4-chlorophenyl)methyl)amino)-8-chloro-4-(cyclohexylamino)quinoline-3-carbonitrile]: the EC50 in test [1] stood at 2.08 µM. In addition, the IC50 in test [2] worked out at 0.062 µM.

In the case of `CC(C)(C)N1CCC(n2cc([C@@H](Nc3cc(Cl)c4ncc(C#N)c(NC5CCCCCC5)c4c3)c3ccc(Cl)cc3)nn2)CC1` [Example 716, (S)-6-(((1-(1-(tert-butyl)piperidin-4-yl)-1H-1,2,3-triazol-4-yl)(4-chlorophenyl)methyl)amino)-8-chloro-4-(cycloheptylamino)quinoline-3-carbonitrile], the 50% effective concentration (EC50) in test [1] turned out to be 0.847 µM. The half-maximal inhibitory concentration (IC50) in test [2] is 0.06 µM.

Regarding `CC(C)(C)N1CCC(n2cc([C@@H](Nc3cc(Cl)c4ncc(C#N)c(Nc5ccc(F)c(Cl)c5)c4c3)c3ccccc3CN3CCOCC3)nn2)CC1` [Example 719, (S)-6-(((1-(1-(tert-butyl)piperidin-4-yl)-1H-1,2,3-triazol-4-yl)(2-(morpholinomethyl)phenyl)methyl)amino)-8-chloro-4-((3-chloro-4-fluorophenyl)amino)quinoline-3-carbonitrile], the concentration giving a half-maximal response (EC50) in test [1] was 2.58 µM. The IC50 in test [2] is 0.041 µM.

Take `CN(C)Cc1ccccc1[C@H](Nc1cc(Cl)c2ncc(C#N)c(Nc3ccc(F)c(Cl)c3)c2c1)c1cn(C2CCN(C(C)(C)C)CC2)nn1` [Example 720, (S)-6-(((1-(1-(tert-butyl)piperidin-4-yl)-1H-1,2,3-triazol-4-yl)(2-((dimethylamino)methyl)phenyl)methyl)amino)-8-chloro-4-((3-chloro-4-fluorophenyl)amino)quinoline-3-carbonitrile]: the EC50 in test [1] was 3.99 µM. Besides, in test [2], the IC50 is 0.072 µM.

As for `N#Cc1cnc2c(Cl)cc(N[C@@H](c3ccccc3)c3cn(-c4cccnc4)nn3)cc2c1Nc1ccc(F)c(Cl)c1` [Example 721, (S)-8-chloro-4-((3-chloro-4-fluorophenyl)amino)-6-((phenyl (1-(pyridin-3-yl)-1H-1,2,3-triazol-4-yl)methyl)amino)quinoline-3-carbonitrile], the 50% effective concentration (EC50) in test [1] was 0.47 µM. The IC50 in test [2] is 0.021 µM.

With `CC(C)(C)N1CCC(n2cc([C@@H](Nc3cc(Cl)c4ncc(C#N)c(Nc5ccc(F)c(Cl)c5)c4c3)c3ccccc3CO)nn2)CC1` [Example 722, (S)-6-(((1-(1-(tert-butyl)piperidin-4-yl)-1H-1,2,3-triazol-4-yl)(2-(hydroxymethyl)phenyl)methyl)amino)-8-chloro-4-((3-chloro-4-fluorophenyl)amino)quinoline-3-carbonitrile], the EC50 in test [1] turned out to be 0.076 µM. In addition, in test [2], the IC50 came to 0.004 µM.

Turning to `N#Cc1cnc2c(Cl)cc(N[C@@H](c3ccc(Cl)cc3)c3cn(C4CCN(C5COC5)CC4)nn3)cc2c1Nc1ccc(F)c(F)c1` [Example 723, (S)-8-chloro-6-(((4-chlorophenyl)(1-(1-(oxetan-3-yl)piperidin-4-yl)-1H-1,2,3-triazol-4-yl)methyl)amino)-4-((3,4-difluorophenyl)amino)quinoline-3-carbonitrile], the concentration giving a half-maximal response (EC50) in test [1] was 1.29 µM. The half-maximal inhibitory concentration (IC50) in test [2] worked out at 0.217 µM.

Regarding `COCCOCCn1cc([C@@H](Nc2cc(Cl)c3ncc(C#N)c(Nc4ccc(F)c(F)c4)c3c2)c2ccc(Cl)cc2)nn1` [Example 724, (S)-8-chloro-6-(((4-chlorophenyl)(1-(2-(2-methoxyethoxy)ethyl)-1H-1,2,3-triazol-4-yl)methyl)amino)-4-((3,4-difluorophenyl)amino) quinoline-3-carbonitrile], the concentration for a half-maximal effect (EC50) in test [1] is 1.4 µM. Besides, the 50% inhibitory concentration (IC50) in test [2] came out at 0.087 µM.

As to `CC(C)(O)c1cccc([C@H](Nc2cc(Cl)c3ncc(C#N)c(Nc4ccc(F)c(Cl)c4)c3c2)c2cn(C3CCN(C(C)(C)C)CC3)nn2)c1` [Example 727, (S)-6-(((1-(1-(tert-butyl)piperidin-4-yl)-1H-1,2,3-triazol-4-yl)(3-(2-hydroxypropan-2-yl)phenyl)methyl)amino)-8-chloro-4-((3-chloro-4-fluorophenyl)amino)quinoline-3-carbonitrile], in test [1], the EC50 came out at 0.178 µM. The IC50 in test [2] was determined as 0.003 µM.

In the case of `COC(=O)c1cccc([C@H](Nc2cc(Cl)c3ncc(C#N)c(Nc4ccc(F)c(Cl)c4)c3c2)c2cn(C3CCN(C(C)(C)C)CC3)nn2)c1` [Example 728, methyl (S)-3-((1-(1-(tert-butyl)piperidin-4-yl)-1H-1,2,3-triazol-4-yl)((8-chloro-4-((3-chloro-4-fluorophenyl)amino)-3-cyanoquinolin-6-yl)amino)methyl)benzoate], the EC50 in test [1] was determined as 0.124 µM. In addition, the IC50 in test [2] stood at 0.003 µM.

In the case of `N#Cc1cnc2c(Cl)cc(N[C@@H](c3ccccc3)c3cn(Cc4ccccn4)nn3)cc2c1Nc1ccc(F)c(Cl)c1` [Example 729, (S)-8-chloro-4-((3-chloro-4-fluorophenyl)amino)-6-((phenyl (1-(pyridin-2-ylmethyl)-1H-1,2,3-triazol-4-yl)methyl)amino)quinoline-3-carbonitrile], in test [1], the EC50 amounted to 0.532 µM. Besides, in test [2], the 50% inhibitory concentration (IC50) turned out to be 0.032 µM.

On to `CC(C)(C)N1CCC(n2cc([C@@H](Nc3cc(Cl)c4ncc(C#N)c(Nc5ccc(Cl)c(Cl)c5F)c4c3)c3ccc(Cl)cc3)nn2)CC1` [Example 731, (S)-6-(((1-(1-(tert-butyl)piperidin-4-yl)-1H-1,2,3-triazol-4-yl)(4-chlorophenyl)methyl)amino)-8-chloro-4-((3,4-dichloro-2-fluorophenyl)amino)quinoline-3-carbonitrile], for which the EC50 in test [1] worked out at 4.45 µM. The IC50 in test [2] came out at 0.078 µM.

`CC(C)(C)N1CCC(n2cc([C@@H](Nc3cc(Cl)c4ncc(C#N)c(Nc5ccc(F)c(Cl)c5)c4c3)c3cccc(CN4CCOCC4)c3)nn2)CC1` [Example 733, (S)-6-(((1-(1-(tert-butyl)piperidin-4-yl)-1H-1,2,3-triazol-4-yl)(3-(morpholinomethyl)phenyl)methyl)amino)-8-chloro-4-((3-chloro-4-fluorophenyl)amino)quinoline-3-carbonitrile]: the EC50 in test [1] worked out at 0.884 µM. Also, the IC50 in test [2] stood at 0.006 µM.

`Cc1nnc(C(Nc2cc(Cl)c3ncc(C#N)c(Nc4ccc(F)c(Cl)c4)c3c2)c2ccc(F)cc2)o1` (centres unmarked) [Example 734, 8-chloro-4-((3-chloro-4-fluorophenyl)amino)-6-(((4-fluorophenyl)(5-methyl-1,3,4-oxadiazol-2-yl)methyl)amino)quinoline-3-carbonitrile]: in test [1], the EC50 was 3.9 µM. In addition, in test [2], the IC50 amounted to 0.151 µM.
